Source: US6180385A (priority 1996, dated 2001)

Key:
L proteinase = details: cited from earlier work
Lb proteinase [1] = molecular target: T1, Lb proteinase (Foot-and-mouth disease virus serotype O, UniProt P03305); type: biochemical, FMDV
Lb proteinase [2] = molecular target: T1, Lb proteinase

T1 sequence (P03305 29-201 limits assumed): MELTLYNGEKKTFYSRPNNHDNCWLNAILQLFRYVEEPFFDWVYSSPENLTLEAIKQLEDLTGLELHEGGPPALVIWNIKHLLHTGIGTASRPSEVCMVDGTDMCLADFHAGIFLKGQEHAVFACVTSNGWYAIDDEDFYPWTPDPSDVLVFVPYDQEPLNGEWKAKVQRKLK

| Molecule | cleavage of peptide in the absence of SDS (controls) (Lb proteinase [2]) | peptide cleaved by Lb (qualitative) (Lb proteinase [2]) | other results |
| --- | --- | --- | --- |
| CC(C)CC(NC(=O)C1OC1C(=O)O)C(=O)NCCCCN=C(N)N (stereo not shown) [Peptide E64, E64] |  |  | effect on the L proteinase (L proteinase): inhibition |
| CCCCCCCCCCCCOS(=O)(=O)O [SDS] |  |  | cleavage of peptide LVP4-1 by Lb proteinase in the presence of inhibitor (Lb proteinase [1]): No cleavage; inhibition of cleavage of peptides P89, p220-4 and p220-6 by Lb proteinase (Lb proteinase [1]): complete inhibition |
| Ac-T*R*P I I T T A G P S D M Y V H-NH2 [Peptide P89] | efficient cleavage | cleaved |  |
| G R T T L S T R*G P P R G G P G [p220-4] | efficient cleavage | cleaved |  |
| T P S F A N L G*R T T L S T R G [p220-6] | efficient cleavage | cleaved | FMDV Lb cleavage site on the peptide (* indicates cleavage site) (Lb proteinase [2]): G*R |
